These are literature values, as cited in patent publication US20230372264A1 (priority 2020, published 2023).

The test system of one series is Candida sp. The settings on record: reference [27].
A further series relates to Staphylococcus aureus. The settings on record: reference [27].
For another series, the system named is Streptococcus spp. The note with it: reference [27].
The test system of series [1] is human breast cancer cells. The settings on record: reference [16].
The subject of series [2] is ACE2 receptor bonds with viral S-glycoproteins. The note with it: in vitro cellular models, cholesterol depletion, reference [5].
For a further series, the system named is SARS-CoV. The settings on record: reference [9].

Consider `OCCc1ccc(O)c(O)c1` [hydroxytyrosol, 4-(2-hydroxyethyl)-1,2-dihydroxybenzene], for which the growth reduction in the series with Candida sp., in the series with Staphylococcus aureus and in the series on Streptococcus spp. was 40% each time.

hydroxypropyl-α-cyclodextrin: in series [1], the “effectiveness against migration vs hydroxypropyl-β-cyclodextrin” value is recorded as “twice as effective”.

On to methyl-β-cyclodextrin [MβCD], for which the “number of ACE2 receptor bonds with viral S-glycoproteins” value in series [2] is reported as “halves”. Also, the “inhibition of SARS-CoV infectivity” value with SARS-CoV is 90%.
